Test results: PubChem BioAssay (NCI)
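Compound exposure: 48 hours, 5 concentrations, 96-well plates. At the GI50, growth is halved. TGI denotes the concentration required for complete inhibition of growth.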

How the values were obtained:
Assay in all cases: DTP human tumour cell line panel, 48 h
[1] = system: UO-31 renal
[2] = system: NCI/ADR-RES ovarian
[3] = system: OVCAR-3 ovarian
[4] = system: SK-OV-3 ovarian
[5] = system: NCI-H23 lung
[6] = system: SF-295 CNS
[7] = system: COLO 205 colon
[8] = system: 786-0 renal
[9] = system: MDA-MB-231 breast
[10] = system: MOLT-4 leukemia
[11] = system: SK-MEL-5 melanoma
[12] = system: SNB-75 CNS
[13] = system: NCI-H460 lung
[14] = system: SF-268 CNS
[15] = system: OVCAR-8 ovarian
[16] = system: SR leukemia
[17] = system: BT-549 breast
[18] = system: CCRF-CEM leukemia

Row | Structure (SMILES) | TGI [1] | TGI [2] | TGI [3] | TGI [4] | TGI [5] | TGI [6] | TGI [7] | TGI [8] | TGI [9] | TGI [10] | TGI [11] | TGI [12] | TGI [13] | TGI [14] | TGI [15] | TGI [16] | TGI [17] | TGI [18] | GI50 [13]
1 | O=C(C1=CCC2(CC1)OCCO2)N(Cc1ccccc1)c1ccccc1I | 33.3 µM | 32.8 µM | 38.6 µM | 88.2 µM | 44.1 µM | 51.8 µM | 36.5 µM | 43 µM | 68.1 µM | > 100 µM | 30.1 µM | 37 µM | 46.4 µM | 27.9 µM | 30.1 µM | > 100 µM | – | – | –
2 | CC(=O)NC1C(OCc2ccccc2)OC(CO)C(O)C1OCC(=O)NC(C)C(=O)NC(CCC(=O)OCCNC(=O)c1cccc2cc3ccccc3nc12)C(N)=O (stereo not given) | 36.2 µM | 68.1 µM | 43.3 µM | 58.2 µM | 48.6 µM | 68.2 µM | 64.8 µM | 70.8 µM | – | > 100 µM | 31.3 µM | 51.1 µM | 57.8 µM | 67 µM | 39.4 µM | 45.3 µM | 45.8 µM | – | –
3 | O=[N+]([O-])/C(Cl)=C(\Sc1ccccc1)C(Cl)=C(Cl)Cl | 0.654 µM | 0.551 µM | 2.85 µM | 13.3 µM | 1.87 µM | 8.92 µM | 0.608 µM | 1.07 µM | 0.628 µM | 1.58 µM | 1.72 µM | – | 3.22 µM | 3.05 µM | 0.351 µM | 0.734 µM | – | 0.667 µM | –
4 | O=C(CN1CCOCC1)NC1=Nc2ncccc2C(=O)NN1 | > 10 µM | – | > 10 µM | > 10 µM | > 10 µM | > 10 µM | – | > 10 µM | > 10 µM | > 10 µM | > 10 µM | > 10 µM | > 10 µM | > 10 µM | > 10 µM | > 10 µM | > 10 µM | > 10 µM | –
5 | CCN(CC)CC1CCCCN1CC(=O)N1c2ccc(Br)cc2C(=O)Nc2cccnc21 (stereo not given) | 44.8 µM | – | > 100 µM | > 100 µM | > 100 µM | > 100 µM | > 100 µM | > 100 µM | > 100 µM | > 100 µM | > 100 µM | 59.4 µM | > 100 µM | > 100 µM | > 100 µM | > 100 µM | – | > 100 µM | –
6 | O=C1CC(CC(O)C(O)CO)CC(=O)N1 (stereo not given) | > 100 µM | > 100 µM | > 100 µM | – | > 100 µM | > 100 µM | – | > 100 µM | > 100 µM | > 100 µM | > 100 µM | – | > 100 µM | > 100 µM | > 100 µM | – | > 100 µM | > 100 µM | –
7 | O=c1oc2ccccc2c(O)c1C(c1ccc([N+](=O)[O-])cc1)c1c(O)c2ccccc2oc1=O | > 100 µM | > 100 µM | > 100 µM | – | > 100 µM | – | > 100 µM | > 100 µM | > 100 µM | > 100 µM | > 100 µM | > 100 µM | > 100 µM | > 100 µM | > 100 µM | – | > 100 µM | > 100 µM | –
8 | c1ccc(SCCP(CCP(c2ccccc2)c2ccccc2)c2ccccc2)cc1 (stereo not given) | 53.9 µM | > 100 µM | 39.9 µM | > 100 µM | > 54.1 µM | > 100 µM | 15.8 µM | > 100 µM | > 100 µM | 81.5 µM | 33.8 µM | > 19.6 µM | > 100 µM | > 100 µM | > 100 µM | – | 68.7 µM | > 100 µM | –
9 | COc1cccc2c1[C@H](OC)[C@]13O[C@@]1(C2=O)[C@H](O)[C@H](C)[C@@](O)(C(=O)[C@@H]1O[C@H]1C)[C@@H]3O | 0.647 µM | > 100 µM | 1.96 µM | 1.47 µM | 0.541 µM | 0.558 µM | 0.415 µM | 2.52 µM | 0.977 µM | > 47.6 µM | 0.386 µM | 0.544 µM | 0.617 µM | 1.22 µM | 0.61 µM | – | 1.28 µM | 0.555 µM | 0.211 µM
10 | C=C(Cl)C(Br)(CCl)CCC(Cl)C(C)C (stereo not given) (tested in a mixture with another compound) | 3.01 µM | – | 5.15 µM | 8.85 µM | 3.79 µM | 19.6 µM | 5 µM | 2.74 µM | 2.49 µM | 48 µM | 3.9 µM | 2.35 µM | 3.42 µM | 3.53 µM | – | > 100 µM | 3.19 µM | > 100 µM | –
11 | Cc1ccc2c(c1)C(=O)C1(C2)Cc2ccc(C)cc2C1=O | > 100 µM | > 100 µM | > 100 µM | > 100 µM | > 100 µM | > 100 µM | – | > 100 µM | > 100 µM | > 100 µM | > 100 µM | > 100 µM | > 100 µM | > 100 µM | > 100 µM | > 100 µM | – | > 100 µM | –
12 | CC1=CC(=O)c2cccc(O)c2C1=O | 3.28 µM | – | 2.96 µM | 27.4 µM | 7.32 µM | 27.7 µM | 4.36 µM | 3.09 µM | 3.15 µM | > 28.3 µM | 3.29 µM | 18 µM | 18.9 µM | 14.6 µM | 15.4 µM | > 21.9 µM | 3.13 µM | 14.7 µM | –
13 | C[C@H](C(=O)N1C(=O)O[C@@H](c2ccccc2)[C@H]1C)[C@H](c1ccccc1)N(Cc1ccccc1)OC(=O)c1ccccc1 | > 100 µM | > 100 µM | – | > 100 µM | > 100 µM | 90.9 µM | > 100 µM | > 100 µM | > 100 µM | > 100 µM | 69.2 µM | > 100 µM | > 100 µM | > 100 µM | > 100 µM | – | > 100 µM | > 100 µM | –
14 | CCCCNC(=O)C1=C(C)NC(C)=C(C(=O)NCCCC)C1 | > 100 µM | > 100 µM | > 100 µM | > 100 µM | > 100 µM | > 100 µM | > 100 µM | > 100 µM | > 100 µM | > 100 µM | > 100 µM | > 100 µM | > 100 µM | > 100 µM | > 100 µM | – | > 100 µM | – | –
